Reference: US9271957B2, “Methods of treating or preventing degenerative joint conditions, osteoarthritis, cartilage damage, and related disorders in companion animals” (HILL'S PET NUTRITION, INC., priority 2008, dated 2016)

Experiments:
cartilage markers [1] = experiment: Serum cartilage (arthritic) markers measured in the blood by ELISA in dogs fed different foods; type: in vivo; conditions: for CPII: blood, d 0 as covariate
Experimental: Thirty (30) dogs were used to determine the effect of lipoic acid when compared to an AAFCO control food or a test food containing fish oil.
Biomarker Measurements: Serum cartilage markers were measured using ELISA based kits to determine concentrations of cartilage markers. Day 0 was used as a covariate in the analysis to adjust for baseline values.
Table 2 illustrates the change in blood level of arthritic markers in dogs after being fed a control diet compared with dogs fed a control plus fish oil and a control plus lipoic acid for 30 days and measured again at day 90.
Table 6 illustrates arthritic makers measured in blood samples for dogs after being fed a control diet compared with dogs fed a pet food including lipoic acid for 90 days.

[2] = test system: genes related to cartilage and energy metabolism; experiment: Differential gene expression profile, whole blood RNA on canine 2 Affymetrix genechips; type: in vivo, dogs
Excerpt: A differential gene expression profile was studied between an AAFCO control food, a food containing fish oil, and a food containing lipoic acid. At a minimum of 1.3 fold change, a list of 1212 genes was generated compared to the AAFCO control and 1896 genes compared to the food containing fish oil at d 30.
RNA Extraction: Total RNAs were isolated from whole blood samples using the PAXgene RNA isolation kit. All measurements were done with the canine 2 Affymetrix genechips. For statistical analysis, all measurements were normalized with RMA. All analysis was preformed using Partek. An ANOVA t-test was performed for genes that are differentially expressed between the control and test foods were selected based on p-value cutoff 0.1, fold change >+/−1.3.
Table 4 illustrates the change in genes related to cartilage metabolism and energy metabolism in dogs after being fed a control diet compared with dogs fed a control plus lipoic acid.

canine bone cells = experiment: Genes related to cartilage metabolism altered by lipoic acid in canine bone cells; type: in vivo, dogs; conditions: 90 days
Plasma metabolomics = type: in vivo; conditions: relative to control fed dogs
Experimental: Metabolomics: Plasma metabolites were analyzed and were compared as fold change relative to the control fed dogs.

[3] = Body fat of dogs fed food containing lipoic acid; type: in vivo; conditions: dogs fed a food containing lipoic acid
Excerpt: These two markers are known to increase in dogs with osteoarthritis. […] In other words, dogs fed lipoic acid utilized available glucose more efficiently and shifted their metabolism towards mobilization of fat for energy use. […] The following tables show the difference in fat and weight as well as cartilage markers relative to treatment with lipoic acid.

cartilage markers [4] = experiment: Serum cartilage (arthritic) markers measured in the blood by ELISA in dogs fed different foods; type: in vivo
[5] = vs a similar food without lipoic acid
[6] = lipoic acid vs. control, cartilage metabolism
[7] = lipoic acid vs. control, energy metabolism
[8] = lipoic acid vs. fish oil, cartilage metabolism
[9] = lipoic acid vs. fish oil, energy metabolism

O=C(O)CCCC[C@@H]1CCSS1 (racemic) [Lipoic acid, lipoic acid]
CPII (cartilage markers [1]; Day 30): 986.28 ng/mL | CPII (cartilage markers [1]; Day 90): 848.0 ng/mL | immune status markers (cartilage markers [1]; after 90 days): decreased | arthritic markers (i.e., CPII and CTXII) (cartilage markers [1]; after a 30 day treatment period): reduction | arthritic markers (i.e., CPII and CTXII) (cartilage markers [1]; after a 90 day period): greater reduction | carboxy-terminal crosslinked telopeptide fragment of type II collagen (cartilage markers [1]; [5]): greater decrease | type II collagen C-propeptide (cartilage markers [1]; [5]): greater decrease | PDK4 gene expression ([2]; dogs fed lipoic acid): increasing | glucose transporters gene expression ([2]; dogs fed lipoic acid): upregulation | Fold change 12-lipooxygenase [2, 6]: −1.3 | Fold change Chondroitan sulfate synthase 1 [2, 6]: 1.4 | Fold change Facilitated glucose transporter 9 [2, 6]: 1.4 | Fold change Prolyl hydroxylase alpha 1 [2, 6]: 1.4 | Fold change Prolyl hydroxylase alpha 2 [2, 6]: 1.3 | Fold change TIMP1 [2, 6]: 1.3 | Fold change chondroitan sulfate proteoglycan 2 (veriscan) [2, 6]: 1.5 | Fold change heparin sulfate N-deacetylase/N-sulfotransferase 2 [2, 6]: 1.3 | Fold change 5′ AMP alpha 1 [2, 7]: 1.3 | Fold change 5′ AMP beta 1 [2, 7]: 1.3 | Fold change 5′ AMP gamma 2 [2, 7]: 1.4 | Fold change Facilitated glucose transporter 1 [2, 7]: 1.3 | Fold change Facilitated glucose transporter 6 [2, 7]: 1.3 | Fold change Fatty acid desaturase 1 [2, 7]: 1.9 | Fold change Hexokinase 3 [2, 7]: 1.3 | Fold change PDK4 [2, 7]: 1.4 | Fold change PPAR gamma [2, 7]: 1.3 | Fold change Succinyl CoA ligase alpha [2, 7]: 1.3 | Fold change 12-lipooxygenase [2, 8]: −1.3 | Fold change ADAMTS-2 [2, 8]: −1.3 | Fold change ADAMTS-10 [2, 8]: −1.3 | Fold change ADAMTS-16 [2, 8]: −1.3 | Fold change Chondroitan sulfate synthase 1 [2, 8]: 1.3 | Fold change Facilitated glucose transporter 9 [2, 8]: 1.4 | Fold change Fibronectin 1 [2, 8]: 1.4 | Fold change Lysyl hydroxylase [2, 8]: 1.3 | Fold change MMP2 [2, 8]: −1.3 | Fold change MMP7 [2, 8]: −1.3 | Fold change N-acetylgalactosaminyl-transferase 1 [2, 8]: 1.3 | Fold change Transforming growth factor beta receptor 1 [2, 8]: 1.3 | Fold change chondroitan sulfate proteoglycan 2 (veriscan) [2, 8]: 1.5 | Fold change 5′ AMP alpha 1 [2, 9]: 1.3 | Fold change 5′ AMP beta 1 [2, 9]: 1.3 | Fold change 5′ AMP gamma 2 [2, 9]: 1.5 | Fold change Facilitated glucose transporter 1 [2, 9]: 1.3 | Fold change Facilitated glucose transporter 6 [2, 9]: 1.4 | Fold change Hexokinase 3 [2, 9]: 1.3 | Fold change PDK4 [2, 9]: 1.6 | Fold change PPAR gamma [2, 9]: 1.3 | Fold change SREBP-1 [2, 9]: −1.3 | Fold change Succinyl CoA ligase alpha [2, 9]: 1.3 | Fold change Succinyl CoA ligase beta [2, 9]: 1.3 | Fold change cAMP responsice element modulator [2, 9]: 1.3 | Directional change MMP3 (1582602_at) (canine bone cells): down regulation and Down | Directional change Prolyl 4-hydroxylase (1600479_at) (canine bone cells): up-regulation and up | Directional change TIMP2 (1582708_at) (canine bone cells): up-regulation and up | metabolite hydroxyproline in plasma (Plasma metabolomics): reduced | Body fat [3]: lost fat | Change CPII (cartilage markers [4]; Day 30, without covariates): −95.10 | Change CTXII (cartilage markers [4]; Day 30, without covariates): −5.60 | Change CPII (cartilage markers [4]; Day 90, without covariates): −232.70 | Change CTXII (cartilage markers [4]; Day 90, without covariates): −0.59
